In patent publication US8497240B2 (priority 2006, dated 2013):
Read-outs that look alike come from different tables or passages of the source.

Tests used:
[1] = assay type: in vivo, NIH/Swiss mice; settings: 80 nmol/kg, AUC240
Experimental: (§1) In FIG. 3A, bars represent mean±sd, n=6-10. […] Gavage (1.5 g/kg) was given at t=0, Sample was taken at t=30 min. […] In FIG. 3B, points represent mean±sem, n=8-15.
Points represent mean±sem.

[2] = assay type: in vivo, NIH/Swiss mice
Experimental: as §1
Peptide was injected IP at t=−5 minutes into 4-hour fasted NIH/Swiss female mice. […] In FIG. 17 points represent mean+/−sem. […] Samples were taken at t=60, t=120 and t=180.

SMILES | Basal Glucose Lowering at Peptide Conc. of 80 nmol/kg [1] | OGTT/GL (%) ([2]; 30 nmol/kg) | OGTT/GL (%) ([2]; 250 nmol/kg) | Basal Gluc. Low. 80 nmol/Kg [1] | OGTT/GL (%) ([2]; 350 nmol/kg)
CC[C@H](C)[C@H](NC(=O)[C@H](CO)NC(=O)[C@H](Cc1ccc(O)cc1)NC(=O)[C@H](CC(=O)O)NC(=O)[C@H](CO)NC(=O)[C@@H](NC(=O)[C@H](Cc1ccccc1)NC(=O)[C@@H](NC(=O)CNC(=O)[C@H](CCC(=O)O)NC(=O)[C@@H](C)NC(=O)[C@@H](N)Cc1ccc(O)cc1)[C@@H](C)O)[C@@H](C)CC)C(=O)N[C@@H](C)C(=O)N[C@@H](CCSC)C(=O)N[C@@H](CC(=O)O)C(=O)N[C@@H](CCCCN)C(=O)N[C@H](C(=O)N[C@@H](Cc1c[nH]cn1)C(=O)N[C@@H](CCC(N)=O)C(=O)N[C@@H](CCC(N)=O)C(=O)N[C@@H](CC(=O)O)C(=O)N[C@@H](Cc1ccccc1)C(=O)N[C@H](C(=O)N[C@@H](CCC(N)=O)C(=O)N[C@@H](Cc1c[nH]c2ccccc12)C(=O)N[C@@H](CC(C)C)C(=O)N[C@@H](CC(C)C)C(=O)N[C@@H](C)C(=O)N[C@@H](CCC(N)=O)C(=O)N[C@@H](CCCCN)C(=O)N1CCC[C@H]1C(=O)N[C@@H](CO)C(=O)N[C@@H](CO)C(=O)NCC(=O)N[C@@H](C)C(=O)N1CCC[C@H]1C(=O)N1CCC[C@H]1C(=O)N1CCC[C@H]1C(=O)N[C@@H](CO)C(N)=O)C(C)C)[C@@H](C)CC [Compound 0601GIP4846] | −6%, | −25, % | – | – | –
CC[C@H](C)[C@H](NC(=O)[C@H](CO)NC(=O)[C@H](Cc1ccc(O)cc1)NC(=O)[C@H](CC(=O)O)NC(=O)[C@H](CO)NC(=O)[C@@H](NC(=O)[C@H](Cc1ccccc1)NC(=O)[C@@H](NC(=O)CNC(=O)[C@H](CCC(=O)O)NC(=O)[C@@H](C)NC(=O)[C@@H](N)Cc1ccc(O)cc1)[C@@H](C)O)[C@@H](C)CC)C(=O)N[C@@H](C)C(=O)N[C@@H](CCSC)C(=O)N[C@@H](CC(=O)O)C(=O)N[C@@H](CCCCN)C(=O)N[C@H](C(=O)N[C@@H](Cc1c[nH]cn1)C(=O)N[C@@H](CCC(N)=O)C(=O)N[C@@H](CCC(N)=O)C(=O)N[C@@H](CC(=O)O)C(=O)N[C@@H](Cc1ccccc1)C(=O)N[C@H](C(=O)N[C@@H](CC(N)=O)C(=O)N[C@@H](Cc1c[nH]c2ccccc12)C(=O)N[C@@H](CC(C)C)C(=O)N[C@@H](CC(C)C)C(=O)N[C@@H](C)C(=O)N[C@@H](CCC(N)=O)C(=O)N[C@@H](CCCCN)C(=O)N1CCC[C@H]1C(=O)N[C@@H](CO)C(=O)N[C@@H](CO)C(=O)NCC(=O)N[C@@H](C)C(=O)N1CCC[C@H]1C(=O)NCC(=O)N1CCC[C@H]1C(=O)N[C@@H](CO)C(N)=O)C(C)C)[C@@H](C)CC [Compound 0601GIP4952] | −1, % | −21, % | – | – | –
CC[C@H](C)[C@H](NC(=O)[C@H](CO)NC(=O)[C@H](Cc1ccc(O)cc1)NC(=O)[C@H](CC(=O)O)NC(=O)[C@H](CO)NC(=O)[C@@H](NC(=O)[C@H](Cc1ccccc1)NC(=O)[C@@H](NC(=O)CNC(=O)[C@H](CCC(=O)O)NC(=O)[C@@H](C)NC(=O)[C@@H](N)Cc1ccc(O)cc1)[C@@H](C)O)[C@@H](C)CC)C(=O)N[C@@H](C)C(=O)N[C@@H](CCSC)C(=O)N[C@@H](CC(=O)O)C(=O)N[C@@H](CCCCN)C(=O)N[C@H](C(=O)N[C@@H](Cc1c[nH]cn1)C(=O)N[C@@H](CCC(N)=O)C(=O)N[C@@H](CCC(N)=O)C(=O)N[C@@H](CC(=O)O)C(=O)N[C@@H](Cc1ccccc1)C(=O)N[C@H](C(=O)N[C@@H](CC(N)=O)C(=O)N[C@@H](Cc1c[nH]c2ccccc12)C(=O)N[C@@H](CC(C)C)C(=O)N[C@@H](CC(C)C)C(=O)N[C@@H](C)C(=O)N[C@@H](CCC(N)=O)C(=O)N[C@@H](CCCCN)C(=O)N[C@H](C(=O)N[C@@H](CO)C(=O)N1CCC[C@H]1C(=O)N1CCC[C@H]1C(=O)N1CCC[C@H]1C(N)=O)[C@@H](C)O)C(C)C)[C@@H](C)CC [0601GIP4345] | −11%, AUC240 | −14 @ 30 nmol/kg % | −25 @ 250 nmol/kg, % | – | –
CC[C@H](C)[C@H](NC(=O)[C@H](CO)NC(=O)[C@H](Cc1ccc(O)cc1)NC(=O)[C@H](CC(=O)O)NC(=O)[C@H](CO)NC(=O)[C@@H](NC(=O)[C@H](Cc1ccccc1)NC(=O)[C@@H](NC(=O)CNC(=O)[C@H](CCC(=O)O)NC(=O)[C@@H](C)NC(=O)[C@@H](N)Cc1ccc(O)cc1)[C@@H](C)O)[C@@H](C)CC)C(=O)N[C@@H](C)C(=O)N[C@@H](CCSC)C(=O)N[C@@H](CC(=O)O)C(=O)N[C@@H](CCCCN)C(=O)N[C@H](C(=O)N[C@@H](Cc1c[nH]cn1)C(=O)N[C@@H](CCC(N)=O)C(=O)N[C@@H](CCC(N)=O)C(=O)N[C@@H](CC(=O)O)C(=O)N[C@@H](Cc1ccccc1)C(=O)N[C@H](C(=O)N[C@@H](CC(N)=O)C(=O)N[C@@H](Cc1c[nH]c2ccccc12)C(=O)N[C@@H](CC(C)C)C(=O)N[C@@H](CC(C)C)C(=O)N[C@@H](C)C(=O)N[C@@H](CCC(N)=O)C(=O)N[C@@H](CCCCN)C(=O)N1CCC[C@H]1C(=O)N[C@@H](CCCCN)C(=O)N[C@@H](CC(C)C)C(=O)N[C@H](C(=O)N[C@@H](CCCCN)C(=O)N[C@@H](CC(C)C)C(=O)N[C@H](C(=O)N[C@@H](CCCCN)C(=O)N[C@@H](CO)C(N)=O)[C@@H](C)CC)[C@@H](C)CC)C(C)C)[C@@H](C)CC [0601GIP4346] | −10%, AUC240 | −20, 30% | – | – | –
CC[C@H](C)[C@H](NC(=O)[C@H](CO)NC(=O)[C@H](Cc1ccc(O)cc1)NC(=O)[C@H](CC(=O)O)NC(=O)[C@H](CO)NC(=O)[C@@H](NC(=O)[C@H](Cc1ccccc1)NC(=O)[C@@H](NC(=O)CNC(=O)[C@H](CCC(=O)O)NC(=O)[C@@H](C)NC(=O)[C@@H](N)Cc1ccc(O)cc1)[C@@H](C)O)[C@@H](C)CC)C(=O)N[C@@H](C)C(=O)N[C@@H](CCSC)C(=O)N[C@@H](CC(=O)O)C(=O)N[C@@H](CCCCN)C(=O)N[C@H](C(=O)N[C@@H](Cc1c[nH]cn1)C(=O)N[C@@H](CCC(N)=O)C(=O)N[C@@H](CCC(N)=O)C(=O)N[C@@H](CC(=O)O)C(=O)N[C@@H](Cc1ccccc1)C(=O)N[C@H](C(=O)N[C@@H](CC(N)=O)C(=O)N[C@@H](Cc1c[nH]c2ccccc12)C(=O)N[C@@H](CC(C)C)C(=O)N[C@@H](CC(C)C)C(=O)N[C@@H](C)C(=O)N[C@@H](CCC(N)=O)C(=O)N[C@@H](CCCCN)C(=O)N1CCC[C@H]1C(=O)N[C@@H](CCCCN)C(=O)N[C@@H](CCCCN)C(=O)N[C@H](C(=O)N[C@@H](CCCNC(=N)N)C(=O)N[C@@H](C)C(=O)N[C@@H](CO)C(N)=O)[C@@H](C)CC)C(C)C)[C@@H](C)CC [Compound 0601GIP4818] | – | −23, % | – | −9%, | –
CC[C@H](C)[C@H](NC(=O)[C@H](CO)NC(=O)[C@H](Cc1ccc(O)cc1)NC(=O)[C@H](CC(=O)O)NC(=O)[C@H](CO)NC(=O)[C@@H](NC(=O)[C@H](Cc1ccccc1)NC(=O)[C@@H](NC(=O)CNC(=O)[C@H](CC(=O)O)NC(=O)[C@H](CO)NC(=O)[C@@H](N)Cc1ccc(O)cc1)[C@@H](C)O)[C@@H](C)CC)C(=O)N[C@@H](C)C(=O)N[C@@H](CCSC)C(=O)N[C@@H](CC(=O)O)C(=O)N[C@@H](CCCCN)C(=O)N[C@H](C(=O)N[C@@H](Cc1c[nH]cn1)C(=O)N[C@@H](CCC(N)=O)C(=O)N[C@@H](CCC(N)=O)C(=O)N[C@@H](CC(=O)O)C(=O)N[C@@H](Cc1ccccc1)C(=O)N[C@H](C(=O)N[C@@H](CC(N)=O)C(=O)N[C@@H](Cc1c[nH]c2ccccc12)C(=O)N[C@@H](CC(C)C)C(=O)N[C@@H](CC(C)C)C(=O)N[C@@H](C)C(=O)N[C@@H](CCC(N)=O)C(=O)N[C@@H](CCCCN)C(=O)NCCC(=O)N1CCC[C@H]1C(=O)N[C@@H](CO)C(=O)N[C@@H](CO)C(=O)NCC(=O)N[C@@H](C)C(=O)N1CCC[C@H]1C(=O)N1CCC[C@H]1C(=O)N1CCC[C@H]1C(=O)N[C@@H](CO)C(N)=O)C(C)C)[C@@H](C)CC [Compound 0601GIP4395] | −0%, AUC240 | −11, 30% | – | – | –
CC[C@H](C)[C@H](NC(=O)[C@H](CO)NC(=O)[C@H](Cc1ccc(O)cc1)NC(=O)[C@H](CC(=O)O)NC(=O)[C@H](CO)NC(=O)[C@@H](NC(=O)[C@H](Cc1ccccc1)NC(=O)[C@@H](NC(=O)CNC(=O)[C@H](CCC(=O)O)NC(=O)[C@@H](C)NC(=O)[C@H](Cc1ccc(O)cc1)NC)[C@@H](C)O)[C@@H](C)CC)C(=O)N[C@@H](C)C(=O)N[C@@H](CCSC)C(=O)N[C@@H](CC(=O)O)C(=O)N[C@@H](CCCCN)C(=O)N[C@H](C(=O)N[C@@H](Cc1c[nH]cn1)C(=O)N[C@@H](CCC(N)=O)C(=O)N[C@@H](CCC(N)=O)C(=O)N[C@@H](CC(=O)O)C(=O)N[C@@H](Cc1ccccc1)C(=O)N[C@H](C(=O)N[C@@H](CC(N)=O)C(=O)N[C@@H](Cc1c[nH]c2ccccc12)C(=O)N[C@@H](CC(C)C)C(=O)N[C@@H](CC(C)C)C(=O)N[C@@H](C)C(=O)N[C@@H](CCC(N)=O)C(=O)N[C@@H](CCCCN)C(=O)N1CCC[C@H]1C(=O)N[C@@H](CO)C(=O)N[C@@H](CO)C(=O)NCC(=O)N[C@@H](C)C(=O)N1CCC[C@H]1C(=O)N1CCC[C@H]1C(=O)N1CCC[C@H]1C(=O)N[C@@H](CO)C(N)=O)C(C)C)[C@@H](C)CC [Compound 0601GIP4238] | −6%, AUC240 | – | – | – | −25
